Here are results for eleven compounds from PubChem BioAssay (NCI).

The structures appear in SMILES notation.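 In this assay, cells in 96-well plates receive the compound at five concentrations for 48 hours. Endpoints are linearly interpolated between the surrounding concentrations. GI50: concentration for 50% inhibition of growth. TGI marks complete inhibition of growth.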

Some test systems named below: HOP-18 NSCLC; DLD-1 colon; DMS 114 small cell lung; SNB-78 CNS; DMS 273 small cell lung; PC-3 prostate; MDA-MB-231 breast; T-47D breast; TK-10 renal; DU-145 prostate; SR leukemia; ACHN renal; M14 melanoma; MDA-N; BT-549 breast.
What all share (assay): inhibition of tumour cell growth, NCI panel, 48 h

With `CCN(CC)CCCOC(=O)/C=C/c1c(C)[nH]c(=O)[nH]c1=O`, the TGI with HOP-18 NSCLC, with DLD-1 colon, in the assay with DMS 114 small cell lung, in the assay with SNB-78 CNS and in the assay with DMS 273 small cell lung was > 625 µM throughout.
Consider `CC(=O)[C@@H]1CCC=C2CC[C@]3(C)[C@@H](CC[C@@H]4[C@@]5(C)CCCNC(C)(C)[C@@H]5CC[C@]43C)[C@H]21`, for which the GI50 with PC-3 prostate is 1650 nM; in the assay on MDA-MB-231 breast, 1810 nM; in the assay on T-47D breast it was 1720 nM; in the assay on TK-10 renal, 1880 nM; in the assay with DU-145 prostate, 1770 nM. Also, the TGI in the assay on PC-3 prostate worked out at 3.06 µM; in the assay on MDA-MB-231 breast it was 3.35 µM; in the assay with T-47D breast, 3.47 µM; in the assay on TK-10 renal, 3.45 µM; in the assay on DU-145 prostate, 3.33 µM.
For `Cc1c2c(cc3c1[nH]c1ccccc13)C=NCC2`, the TGI with DLD-1 colon is 33.1 µM; with DMS 114 small cell lung, 12.9 µM; in the assay with SNB-78 CNS, 63.8 µM; in the assay with DMS 273 small cell lung it was 45.8 µM.
In the case of `O=C(CC/C=C(/CS(=O)(=O)c1ccccc1)S(=O)(=O)c1ccccc1)c1ccccc1`, the TGI in the assay with HOP-18 NSCLC, in the assay on SR leukemia, in the assay on TK-10 renal, in the assay on DLD-1 colon, in the assay with ACHN renal and with M14 melanoma was > 100 µM each time. Besides, the TGI with DMS 114 small cell lung is 83.4 µM; in the assay with DMS 273 small cell lung, > 100 µM.
Take `CC(=O)NCCC1CN(C(=O)/C=C\C#C[Si](C)(C)C)c2ccccc21` (centres undefined): the TGI in the assay with PC-3 prostate is > 100 µM; with MDA-N it was > 100 µM; with MDA-MB-231 breast, 67.3 µM; with BT-549 breast it was > 100 µM; with T-47D breast it was 86.4 µM; in the assay with TK-10 renal it was > 100 µM. For the same compound, the values for the TGI in the assay on ACHN renal, in the assay on M14 melanoma and in the assay on DU-145 prostate were > 100 µM, 45.5 µM and > 100 µM, respectively.
As to `CCCCCCCCCCCCCCCCSCC(COC)COP(=O)([O-])OCC[N+](C)(C)C` (centres undefined), the TGI in the assay on HOP-18 NSCLC turned out to be 16.5 µM; in the assay with DLD-1 colon it was 11.2 µM; in the assay on DMS 114 small cell lung, 20.8 µM; in the assay with SNB-78 CNS, 26.1 µM; with DMS 273 small cell lung, 3.9 µM.
The matching figures for `CC(=O)OCC1OC(n2cc(F)c(=O)[nH]c2=O)C(N)C(OC(C)=O)C1OC(C)=O` (centres undefined): > 100 µM, > 100 µM, > 100 µM, > 100 µM and > 100 µM.
The matching figures for `Nc1nc2c(c(=O)[nH]1)N(C=O)C(CNc1ccc(C(=O)N[C@@H](CCC(=O)O)C(=O)O)cc1)CN2` (some centres undefined): > 125 µM, > 125 µM, > 125 µM, > 125 µM and > 125 µM.
Turning to `O=C1CC(=O)c2c(O)cc(O)c(c2O)-c2c(ccc(O)c2O)C2=CC(=O)c3c(O)cc(O)c(c3O2)-c2c1ccc(O)c2O` (tested in a mixture with another compound), the TGI in the assay on PC-3 prostate, with MDA-N, in the assay with MDA-MB-231 breast, in the assay on BT-549 breast, in the assay with T-47D breast and in the assay on SR leukemia was > 50 µM throughout. Moreover, the TGI in the assay on TK-10 renal, with M14 melanoma and in the assay on DU-145 prostate was > 50 µM in each case.
Turning to `CCOC(=O)c1sc2nc(SC)nc3c2c1NC(=O)CN3c1cccc(F)c1`, the TGI is 34.4 µM in the assay with PC-3 prostate; > 100 µM in the assay with MDA-N; 41.3 µM in the assay on MDA-MB-231 breast; 21.3 µM in the assay with BT-549 breast; > 100 µM with SR leukemia; 86.8 µM with TK-10 renal. The TGI with ACHN renal came out at 27.3 µM; in the assay on M14 melanoma, 50 µM; with DU-145 prostate, 52.7 µM.
Take `O=C(NCCCCCCNC(=O)n1cc(F)c(=O)[nH]c1=O)NCCCOCCOCCCNC(=O)C(O)C(O)C(O)C(O)CO` (centres undefined): the TGI in the assay on HOP-18 NSCLC, with DLD-1 colon, in the assay on DMS 114 small cell lung, with SNB-78 CNS and in the assay with DMS 273 small cell lung was > 2.5 µM in each case.
